# Laboratory results published in patent US9271952B2, “Compositions and methods for treating nephropathy” (Complexa, Inc., priority 2011, dated 2016).
# Legend:
# B6129S2/J mice = test: Cisplatin-induced renal injury in mice, posttreatment with OA-NO2; format: in vivo
# Source text: The control group also received an i.p. injection of the equivalent amount of ethanol at the same frequencies. At the end of the experiments, under isoflurane anesthesia, blood was withdrawn from the vena cava using 1 cc insulin syringe and kidneys were harvested for analysis of morphology and gene expression.
# [1] = system: human proximal tubular cells (HK2); test: Cisplatin-induced caspase activity in cultured human proximal tubular cells (HK2); format: cell-based
# [2] = cisplatin-treated mice, OA-NO2 400 mg/kg i.p. at 6-hour intervals for 48 hours
# [3] = cisplatin 20 mg/kg i.p. alone, mice
Compound,MPO plasma level (marker of neutrophil infiltration) (B6129S2/J mice; [2]),activity of caspase (index of apoptosis) (B6129S2/J mice; [2]),kidney expression of NADPH oxidase subunits p47phox and gp91phox (B6129S2/J mice; [2]),"kidney thiobarbituric acid-reactive substances (TBARS, index of oxidative stress) (B6129S2/J mice; [2])","renal histological abnormalities (distortion of renal morphology, dilation of renal tubules, protein cast; pathological changes) (B6129S2/J mice; mice given cisplatin 20 mg/kg i.p., OA-NO2 400 mg/kg i.p. at 6-hour intervals for 48 hours)","renal dysfunction as indicated by a rise in plasma BUN (functional changes) (B6129S2/J mice; mice given cisplatin 20 mg/kg i.p., OA-NO2 400 mg/kg i.p. from 20 minutes after, at 6-hour intervals for 48 hours)","cisplatin-induced caspase activity ([1]; HK2 cells exposed to 1.0 μM cisplatin, with OA-NO2)",activity of caspase (B6129S2/J mice; [3]),kidney TBARS (B6129S2/J mice; [3]),kidney expression of NADPH oxidase subunits p47phox and gp91phox (B6129S2/J mice; [3]),"increase in caspase activity ([1]; HK2 cells, exposure to 1.0 μM cisplatin)"
9- or 10-nitro octadecenoic acid [OA-NO2],attenuated or completely corrected,attenuated or completely corrected,attenuated or completely corrected,attenuated or completely corrected,markedly attenuated,markedly attenuated,almost completely normalized,–,–,–,–
"N.N.[Cl][Pt][Cl] [cisplatin, reference compound]",–,–,–,–,–,–,–,increased,increased,increased,3 fold
